{"source": "patent US8759363B2", "about": "“Quinazoline-based T cell proliferation inhibitors” (Yissum Research Development Company of the Hebrew …, priority 2010, dated 2014)", "key": {"OT1 (resting) cells": {"tested_on": "OT1 (resting) cells", "test": "MLR with resting control cells, resting OT1 cells", "format": "cell-based, mouse", "settings": "0.5 μM, 72 h MLR with IL-7; no inhibitor 2459", "text": "(§1) The aim of this test was to determine whether 2 affects only the proliferating cells or there is a general mechanism affecting all cell numbers. For this purpose we mixed 3 cell types: […]: BALB/c, 2C and OT1; […]: CB6F1, TEA and OT2. The OT1 and OT2 are splenocytes that were isolated from OT1 and OT2 mice (Jackson Laboratories, Bar Harbor, Me.),\n(§2) Thus, the ability to monitor the fate of proliferation and resting cells by FACS was enabled due to the use of the MLR described above for CD4+ and CD8+ and the addition of OT2 and OT1 splenocytes, respectively.\n(§3) Proliferating cells often secrete cytokines that induce survival of neighbouring cells; since the proliferation was expected to be inhibited we added 50 ng/ml of IL-7. This concentration is sufficient to keep the cells alive, but not to induce proliferation.\n(§4) Irradiated Balb splenocytes were incubated for 72 h with 2C, and OT1 splenocytes in the presence of IL-7 W/O inhibitor.\n(§5) The CD4+ and CD8+ were stimulated to proliferate, whereas in the absence of specific stimuli the OT1 and OT2 cell populations were resting, and theses cells were kept alive by the administration of IL-7. […] The number of 2C and OT1 cells that were treated with 0.5 μM 2 was 286 and 1148, respectively, while the number of 2C and OT1 cells that were treated with 0.5 μM 21 (control) was 4767 and 2468, respectively. This is depicted as a bar-graph in FIG. 8C."}, "PBMC and Jurkat cells": {"tested_on": "PBMC and Jurkat cells", "test": "Cell cycle analysis by FACS", "format": "cell-based, human", "settings": "treated cells, 0.5 μM S101", "protocol": "The effects of the inhibition of the cell cycle were analyzed with a fluorescence-activated cell sorter (FACS). Cells were grown in 60 mm diameter plates (Nunc) and were treated with inhibitor for 12 and 24 h. After the indicated time, cells were pooled, pelleted by centrifugation, washed in phosphate-buffered saline (PBS), and fixed with cold 70% ethanol for a minimum of 12 h. Cells were re-pelleted and resuspended in PBS. 50 μg/ml of RNase A was added in the dark for 30 minutes followed by 5 μg/ml of propidium iodide for FACS analysis (Becton Dickinson FACScan).\nThe fraction of cells in G2 increased from 30% in the untreated cells to 50% in the treated cells."}, "2C (stimulated) cells": {"tested_on": "2C (stimulated) cells", "test": "MLR with resting control cells, stimulated 2C cells", "format": "cell-based, mouse", "settings": "0.5 μM, 72 h MLR with IL-7; no inhibitor 3805", "text": "as §1, §2, §3, §4, §5"}, "[1]": {"tested_on": "PC-3, HEK293, NIH-3T3, A375, MDA-MB-231", "test": "BrdU uptake by non-hematopoietic cell lines compared with PBMC and Jurkat", "format": "cell-based", "settings": "stimulated and non-stimulated cells", "protocol": "(§6) Cells were depleted of fetal calf serum (FCS) for 12 hours. They were then stimulated to proliferate by addition of ConA (10 μg/ml) for PBMC from healthy individuals and for Jurkat cells, FCS (10%) for HEK293 and A375 cells, PDGF (30 ng/ml) for NIH 3T3 cells, and EGF (30 ng/ml) for MDA-MB-231, Cells (1×10^5) were cultured in 96-well plates for 3 days in the presence or absence of inhibitors at the concentrations specified in the text. Each condition was tested in duplicate wells.\n(§7) Proliferation was assessed by BrdU incorporation using a colorimetric ELISA kit (Roche, Germany). Subsequent to labeling with 10 μM BrdU, DNA was denatured and the cells were incubated with anti-BrdU-POD, prior to the addition of colorimetric substrate (TMB). The reaction product was quantified by measuring absorbance at 450 nm in an ELISA plate reader (ELx800 BIO-TEK Instruments Inc.).\nTo characterize the mode of action of 2 (S101) in more detail, we first examined whether 2 inhibits non-hematopoietic cell lines. We studied the effect of 2 on the growth of four cell lines: NIH 3T3 (mouse embryonic fibroblasts), A-431 (human vulval carcinoma cells), MDA-MB-468 (human breast carcinoma cells), and PANC-1 (human pancreatic carcinoma cells) (FIGS. 1A-B). We also tested the inhibitors on human keratinocytes. […]"}, "PBMC": {"tested_on": "PBMC", "test": "PBMC proliferation, BrdU incorporation", "format": "cell-based, human", "settings": "Homo sapiens", "protocol": "Blood samples were taken from healthy donors and loaded on a Ficoll density gradient to purify the PBMC population. T cells were purified by human anti-CD3 using an autoMACS instrument (Miltenyi Biotec, Bergisch-Gladbach, Germany), according to the manufacturer's instructions. The identity of T cells was confirmed by flow cytometry, as they stained positive for CD3. Cells were stimulated with ConA (10 μg/ml), ODN2006 (0.5 μg/ml; Enzo Life Sciences), or LPS (50 μg/ml; Sigma-Aldrich, Steinheim, Germany), for 72 h in the presence of the inhibitor, and their proliferation was measured in the BrdU incorporation assay as will be later described.\nas §6, §7\nSince we were not prejudiced towards any specific protein kinase, we used a biological assay for T cell proliferation. We tested our libraries for inhibition of proliferation of PBMC and Jurkat cells (Table 3). Cell proliferation was measured by BrdU uptake. […] PBMC cells were stimulated by a non-specific T cell mitogen, Concanavalin A (ConA). All of the compounds that were tested inhibited proliferation at micromolar or sub-micromolar concentrations."}}, "note": "Read-outs that look alike come from different tables or passages of the source."}
{"compound": "COc1cc(-c2nc(Nc3ccc(C)cc3)c3ccccc3n2)cc(OC)c1OC", "note": "[Compound 2, N-p-tolyl-2-(3,4,5-trimethoxyphenyl)quinazolin-4-amine]", "values": [{"measurement": "number of OT1 (resting) cells", "setting": "OT1 (resting) cells", "result": 1148}, {"measurement": "sub-G1 population", "setting": "PBMC and Jurkat cells; untreated 2%", "result": 9.5, "unit": "%"}, {"measurement": "fraction of cells in G2", "setting": "PBMC and Jurkat cells; untreated 30%", "result": 50, "unit": "%"}, {"measurement": "number of 2C (stimulated) cells", "setting": "2C (stimulated) cells", "result": 286}, {"measurement": "IC50 values in various cells in comparison to IC50 for PBMC and Jurkat cells", "setting": "[1]", "result": "higher by two orders of magnitude"}, {"measurement": "IC50", "setting": "PBMC; PBMC, ConA 10 μg/ml, 72 h, read-out: IC50 ConA-stimulated proliferation of PBMC", "result": "~100", "unit": "nM"}, {"measurement": "IC50", "setting": "PBMC; PBMC, ODN2006 0.5 μg/ml or LPS 50 μg/ml, 72 h, read-out: IC50 ODN2006 and LPS-stimulated proliferation of PBMCs", "result": "~500", "unit": "nM"}, {"measurement": "IC50", "setting": "PBMC; ConA-stimulated PBMC, BrdU uptake, nM ± SD, read-out: IC50 PBMC proliferation inhibition", "result": 70, "unit": "nM"}, {"measurement": "IC50", "setting": "PBMC; PBMC, non-stimulated, BrdU uptake, read-out: IC50 of non-stimulated cells", "result": 50, "unit": "nM"}]}
